Measurements from US4108994A, “5-Thiazole-methane-amines, and their use as antilipolytics” (Roussel Uclaf, priority 1975, dated 1978).
Counter-ions that a name gives are not always drawn.

Columns and labels:
[1] = acute toxicity, intraperitoneal, mice (DL50); conditions: mouse, in vivo, ip, suspension in carboxymethylcellulose, observed one week, read-out: DL50 (average lethal dose)
Method: The acute toxicity was determined on groups of 10 mice weighing between 18 and 22 g and the product was administered intraperitoneally as a suspension in carboxymethylcellulose.

[2] = system: plasmatic free fatty acids; assay: Antilipolytic activity: determination of plasmatic free fatty acids in the blood; type: in vivo, Male rats of the Sprague Dawley SPF strain; conditions: oral; for ED50: Rattus norvegicus, 1 h, starved rats, one hour after administration, read-out: DA50 (dose which reduced by 50% the level of free fatty acids as compared to controls); for reduction of the amount of plasmatic free fatty acids in the blood (in words): rats
Method: B. Antilipolytic Activity: Determination of Plasmatic Free Fatty Acids in the Blood
Male rats of the Sprague Dawley SPF strain weighing about 180 to 200 gm were starved for 24 hours and then were given the product orally. One hour after the oral administration, the animals were killed by carotidienne section and samples of the blood were obtained to determine the amount of free fatty acids. The extraction of the free fatty acids was made by the technique of Dole [J. Clin. Invest., Vol. 38 (1959), p. 1544-1554] as modified by Trout et al. [J. Lipid. Res., Vol. 1 (1960) p. 199-202]. The plasmatic extract freed of phospholipids was colorimetrically examined by the method of Anthonis [J. Lipid. Res., Vol. 6 (1965), p. 307-312]. Under these test conditions, the dose of the products which reduced by 50% the level of free fatty acids in the treated animals as compared to the controls (DA50) was determined.

glycemia = assay: Hypoglycemiant activity: determination of glycemia; type: in vivo, Male rats of the Sprague Dawley SPF strain; conditions: oral, starved rats, one hour
Method: C. Hypoglycemiant Activity: Determination of Glycemia
Male rats of the Sprague Dawley SPF strain weighing between 180 and 200 gm were starved for 24 hours and were then given the test product orally. One hour after the administration, the animals were killed by carotidienne section and blood samples were taken to determine the glycemia. The seric extract was treated by the enzymatic (glucose-oxydase) method of Boehringer and the percent of reduction of glycemia as compared to the controls was determined for each dose of the product administered.

Row | Compound | LD50 at 168 h [1] [mg/kg] | ED50 [2] [mg/kg] | reduction of the amount of plasmatic free fatty acids in the blood (in words) [2] | Percentage of reduction of the glycemia (glycemia; 5 mg/kg) [%] | Percentage of reduction of the glycemia (glycemia; 10 mg/kg) [%] | Percentage of reduction of the glycemia (glycemia; 20 mg/kg) [%]
1 | Cc1ncc(CN)s1 [Example 1, hemisuccinate of 2-methyl-5-thiazole-methane-amine] | > 1000 | ~0.8 | clear reduction |  |  | 
2 | CNCc1cnc(C)s1 [Example 2, acetate of N,2-dimethyl-5-thiazole-methane-amine] | ~700 | ~4 | clear reduction |  |  | 
3 | Cc1ncc(CN(C)C)s1 [Example 3, maleate of N,N,2-trimethyl-5-thiazole-methane-amine] | ~450 | ~5 | clear reduction |  |  | 
4 | Cc1ncc(CN(CCO)CCO)s1 [Example 4, dinitrate of N,N-bis-(β-hydroxyethyl)-2-methyl-5-thiazole-methane-amine] | ~900 |  |  |  |  | 
5 | CCCc1ncc(CN)s1 [Example 5, hemisuccinate of 2-n-propyl-5-thiazole-methane-amine] | ~650 | ~8 | clear reduction | -12 | -14 | -27
6 | Cc1ncc(CN2CCN(C)CC2)s1 [Example 7, 2-methyl-5-(4-methyl-piperazin-1-yl-methyl)-thiazole] | ~500 |  |  |  |  | 
